The target in assay [1] is T1, Alpha-1A adrenergic receptor (Rattus norvegicus) (UniProt P43140).
T1 sequence (whole entry): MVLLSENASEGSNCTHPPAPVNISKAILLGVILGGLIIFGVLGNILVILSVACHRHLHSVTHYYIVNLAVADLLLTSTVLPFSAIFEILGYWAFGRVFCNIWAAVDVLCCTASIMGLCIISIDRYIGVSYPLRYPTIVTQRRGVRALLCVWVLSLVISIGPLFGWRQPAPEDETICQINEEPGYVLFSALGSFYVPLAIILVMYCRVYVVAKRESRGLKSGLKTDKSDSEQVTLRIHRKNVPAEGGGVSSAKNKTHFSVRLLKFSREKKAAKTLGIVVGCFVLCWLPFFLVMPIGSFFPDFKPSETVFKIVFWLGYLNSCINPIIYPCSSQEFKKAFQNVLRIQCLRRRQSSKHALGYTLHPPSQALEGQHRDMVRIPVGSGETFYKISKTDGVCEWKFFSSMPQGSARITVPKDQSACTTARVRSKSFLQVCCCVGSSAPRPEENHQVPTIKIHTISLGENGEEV
Description: Antagonist activity at alpha-1a adrenergic receptor in Wistar rat prostatic vas deferens assessed as inhibition of (-)-noradrenaline-induced contraction.

Assay [2] has as its target T2, Alpha-1B adrenergic receptor (Rattus norvegicus) (UniProt P15823).
T2 sequence (whole entry): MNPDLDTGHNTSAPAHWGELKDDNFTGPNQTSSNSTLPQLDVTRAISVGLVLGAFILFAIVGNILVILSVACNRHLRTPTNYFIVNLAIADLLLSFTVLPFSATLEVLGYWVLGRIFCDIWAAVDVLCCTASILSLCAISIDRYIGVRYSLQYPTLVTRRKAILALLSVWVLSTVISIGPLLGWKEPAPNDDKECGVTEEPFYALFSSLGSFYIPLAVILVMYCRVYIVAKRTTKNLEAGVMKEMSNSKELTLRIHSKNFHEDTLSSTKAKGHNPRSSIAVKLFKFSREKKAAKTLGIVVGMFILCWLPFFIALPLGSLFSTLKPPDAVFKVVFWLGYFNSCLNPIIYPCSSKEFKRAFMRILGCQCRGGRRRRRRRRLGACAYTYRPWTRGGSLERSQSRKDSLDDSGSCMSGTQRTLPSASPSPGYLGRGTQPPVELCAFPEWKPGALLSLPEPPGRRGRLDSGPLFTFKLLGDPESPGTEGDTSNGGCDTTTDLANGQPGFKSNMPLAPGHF
Description: Antagonist activity at alpha-1b adrenergic receptor in Wistar rat spleen assessed as inhibition of (-)-phenylephrine-induced contraction. It is filed as tissue-based.

Assay [3] concerns the target T3, Alpha-1B adrenergic receptor (Homo sapiens, UniProt P35368).
T3 sequence (P35368 whole entry): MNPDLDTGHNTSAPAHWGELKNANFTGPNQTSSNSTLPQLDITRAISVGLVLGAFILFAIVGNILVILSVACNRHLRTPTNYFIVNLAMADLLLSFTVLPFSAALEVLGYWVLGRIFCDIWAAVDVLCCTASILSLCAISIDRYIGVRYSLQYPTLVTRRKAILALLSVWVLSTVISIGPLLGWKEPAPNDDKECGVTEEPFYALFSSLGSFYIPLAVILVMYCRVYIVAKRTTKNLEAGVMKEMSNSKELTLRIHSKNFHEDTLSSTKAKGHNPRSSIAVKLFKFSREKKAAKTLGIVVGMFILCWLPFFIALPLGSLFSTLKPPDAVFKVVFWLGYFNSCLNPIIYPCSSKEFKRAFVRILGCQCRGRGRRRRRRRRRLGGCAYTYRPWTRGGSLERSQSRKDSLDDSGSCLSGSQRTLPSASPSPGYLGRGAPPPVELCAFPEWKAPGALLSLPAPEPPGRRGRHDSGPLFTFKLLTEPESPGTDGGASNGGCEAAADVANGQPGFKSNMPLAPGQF
The assay can be described thus: Displacement of [3H] prazosin from human cloned adrenoceptor alpha 1B expressed in CHO cell membrane incubated for 30 mins by liquid scintillation counter.

The target in assay [4] is T4, 5-hydroxytryptamine receptor 1A (Homo sapiens, UniProt P08908).
T4 sequence (P08908 whole entry): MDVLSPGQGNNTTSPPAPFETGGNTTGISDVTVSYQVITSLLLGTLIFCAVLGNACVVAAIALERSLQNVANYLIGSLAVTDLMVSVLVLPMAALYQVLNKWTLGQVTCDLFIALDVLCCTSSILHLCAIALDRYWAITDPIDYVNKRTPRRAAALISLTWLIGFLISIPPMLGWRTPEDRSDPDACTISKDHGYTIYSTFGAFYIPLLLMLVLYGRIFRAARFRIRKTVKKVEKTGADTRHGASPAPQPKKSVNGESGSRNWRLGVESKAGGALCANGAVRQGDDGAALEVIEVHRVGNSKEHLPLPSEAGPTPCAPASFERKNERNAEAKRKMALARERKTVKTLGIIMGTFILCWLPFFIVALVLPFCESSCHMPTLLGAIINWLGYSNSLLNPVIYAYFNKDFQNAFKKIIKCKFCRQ
Description: Displacement of [3H]8-OH-DPAT from human cloned 5HT-1AR transfected in HeLa cells incubated for 30 mins by liquid scintillation counter. The class given is cell-based.

Assay [5] addresses T5, 5-hydroxytryptamine receptor 1A (Homo sapiens) (UniProt P08908).
T5 sequence (whole entry): T4 sequence (P08908 whole entry)
The assay can be described thus: Agonist activity at human recombinant 5HT1A receptor expressed in human HeLa cells assessed as increase in [35S]GTPgammaS binding incubated for 20 mins by liquid scintillation counter relative to control. It is filed as functional, cell-based.

For assay [6], the target named is T5, 5-hydroxytryptamine receptor 1A (Homo sapiens). As to conditions: HeLa.
In assay [7] the target is T6, Alpha-1A adrenergic receptor (Homo sapiens, UniProt P35348).
T6 sequence (P35348 whole entry): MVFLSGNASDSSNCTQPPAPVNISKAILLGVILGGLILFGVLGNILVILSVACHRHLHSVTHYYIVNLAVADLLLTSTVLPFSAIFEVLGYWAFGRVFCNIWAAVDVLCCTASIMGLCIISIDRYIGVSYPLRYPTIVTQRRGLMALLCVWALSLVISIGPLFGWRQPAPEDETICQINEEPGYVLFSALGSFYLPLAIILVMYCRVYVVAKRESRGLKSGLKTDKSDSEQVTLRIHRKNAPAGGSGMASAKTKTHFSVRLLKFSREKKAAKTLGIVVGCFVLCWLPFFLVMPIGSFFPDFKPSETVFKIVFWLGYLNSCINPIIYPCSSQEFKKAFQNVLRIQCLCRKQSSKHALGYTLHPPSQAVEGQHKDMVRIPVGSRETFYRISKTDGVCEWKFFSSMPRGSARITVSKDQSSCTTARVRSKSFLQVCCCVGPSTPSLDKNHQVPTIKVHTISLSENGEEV
Description: biochemical.
Description: Displacement of [3H] prazosin from human cloned adrenoceptor alpha 1A expressed in CHO cell membrane incubated for 30 mins by liquid scintillation counting

As to `COc1ccccc1OCCNCC1CCOC(c2ccccc2)(c2ccccc2)O1` (configuration not stated), the negative-log Kb (pKb) turned out to be 6.99 in assay [1] and 7.19 in assay [2]. The Ki in assay [3] is 15.8 nM; in assay [4], 0.776 nM; in assay [7] it was 24.5 nM. Further, the maximum response (Emax) in assay [5] was 65.9%. For the same compound, the pD2 in assay [6] came to 8.49.

Regarding `c1ccc(OCCNCC2COC(c3ccccc3)(c3ccccc3)OC2)cc1`, the pKb was 5.52 in assay [1] and 6.76 in assay [2]. Besides, the Ki in assay [3] is 282 nM; in assay [4], 23.4 nM; in assay [7], 288 nM. Besides, in assay [5], the maximal effect (Emax) was 88.7%. This compound registered a pD2 in assay [6] of 5.87.

With `COc1ccccc1OCCNCC[C@H]1CO[C@H](C(c2ccccc2)c2ccccc2)O1` (relative stereo), the figures for the negative-log Kb (pKb) in assay [1] and in assay [2] were 6.23 and 7.13, respectively. Moreover, the Ki in assay [3] was 30.9 nM; in assay [4] it was 15.5 nM; in assay [7], 60.3 nM. Also, the Emax in assay [5] was determined as 53%. This compound also returned a pD2 in assay [6] of 6.24.

In the case of `COc1ccccc1OCCNCC1COC(c2ccccc2)(c2ccccc2)OC1.O=C(O)C(=O)O`, the values for the negative-log Kb (pKb) in assay [1] and in assay [2] were 5.98 and 6.8, respectively. For the same compound, the Ki in assay [3] was 31.6 nM; in assay [4], 1.62 nM; in assay [7], 33.9 nM. For the same compound, in assay [5], the maximum response (Emax) turned out to be 91.6%. The compound further showed a pD2 in assay [6] of 9.22.

For `COc1ccccc1OCCNCCC1COC(c2ccccc2)(c2ccccc2)O1` (configuration not stated), the values for the pKb in assay [1] and in assay [2] were 6.74 and 6.93, respectively. Also, the figures for the Ki in assay [3], in assay [4] and in assay [7] were 14.8 nM, 0.501 nM and 7.24 nM, respectively. In addition, the Emax in assay [5] was found to be 22.1%. Besides, the pD2 in assay [6] came out at 6.16.

With `c1ccc(OCCNCC2CCOC(c3ccccc3)(c3ccccc3)O2)cc1` (configuration not stated), the negative logarithm of the Kb (pKb) in assay [1] worked out at 6.12; in assay [2] it was 6.97. Further, the inhibitory constant (Ki) in assay [3] is 56.2 nM; in assay [4], 1.86 nM; in assay [7] it was 38.9 nM. For the same compound, in assay [5], the Emax was found to be 79.5%. Besides, in assay [6], the pD2 was found to be 7.85.

In the case of `COc1ccccc1OCCNCCOC(c1ccccc1)c1ccccc1`, the results for the negative logarithm of the Kb (pKb) in assay [1] and in assay [2] were 6.18 and 7.11, respectively. In addition, the Ki in assay [3] is 3020 nM; in assay [4], 7.24 nM; in assay [7], 44.7 nM. Also, in assay [5], the maximal response (Emax) worked out at 77.3%. Further, the pD2 in assay [6] amounted to 7.38.

Turning to `COc1ccccc1OCCNCC(CO)OC(c1ccccc1)c1ccccc1` (configuration not stated), the pKb in assay [1] worked out at 6.51; in assay [2], 7.02. The results for the Ki in assay [3], in assay [4] and in assay [7] were 91.2 nM, 1.55 nM and 83.2 nM, respectively. Also, the Emax in assay [5] worked out at 90.2%. Besides, the pD2 in assay [6] amounted to 7.53.

For the compound `COc1ccccc1OCCNCC[C@@H]1CO[C@H](C(c2ccccc2)c2ccccc2)O1` (relative stereo), the pKb in assay [1] was 6.58; in assay [2], 6.91. The Ki in assay [3] was 64.6 nM; in assay [4], 25.7 nM; in assay [7], 50.1 nM. In addition, in assay [5], the Emax came to 82.1%. For the same compound, the pD2 in assay [6] was 5.86.

`OCC(CNCCOc1ccccc1)OC(c1ccccc1)c1ccccc1` (configuration not stated): the pKb was < 5 in assay [1] and 6.98 in assay [2]. For the same compound, the Ki in assay [3] was 2290 nM; in assay [4] it was 4.57 nM; in assay [7], 141 nM. For the same compound, in assay [5], the Emax came out at 69.5%. This compound also showed a pD2 in assay [6] of 7.51.

Regarding `c1ccc(OCCNCCOC(c2ccccc2)c2ccccc2)cc1`, the pKb in assay [1] was 7.65; in assay [2], 7.01. Moreover, the inhibitory constant (Ki) in assay [3] was 25.1 nM; in assay [4] it was 1.35 nM; in assay [7] it was 17 nM. Further, the Emax in assay [5] is 78.9%. This compound also had a pD2 in assay [6] of 7.85.
